# Data from ChEMBL document CHEMBL1158249, “Cytotoxic falcarinol oxylipins from Dendropanax arboreus” (J Nat Prod, 1996).
# Activity calls are given as the source filed them. The rule behind the calls is not given here.
# Legend:
# [1] = Cytotoxicity against human NCI60 cells; assay type: functional
# Mus musculus [2] = assay: Toxicity against human LOX cells xenografted athymic nude mouse assessed as median day of death at 0.88 mg/kg, ip administered daily for 5 days; assay type: organism-based; set-up: dose 0.88 mg/kg, route intraperitoneal; conditions: in vivo, 120 h
# [3] = Antitumor activity against human LOX cells xenografted athymic nude mouse assessed as increase in life span at 3.0 mg/kg, ip administered daily for 5 days; assay type: functional; conditions: route intraperitoneal
# [4] = Antitumor activity against human LOX cells xenografted athymic nude mouse assessed as increase in life span at 2.0 mg/kg, ip administered daily for 5 days; assay type: functional; conditions: route intraperitoneal
# LOX [5] = assay: Antitumor activity against human LOX cells xenografted athymic nude mouse at 1.33 mg/kg, ip administered daily for 5 days; assay type: functional, organism-based; set-up: dose 1.33 mg/kg
# Mus musculus [6] = assay: Toxicity against human LOX cells xenografted athymic nude mouse assessed as median day of death at 3.0 mg/kg, ip administered daily for 5 days; assay type: organism-based; set-up: dose 3 mg/kg, route intraperitoneal; conditions: in vivo, 120 h
# LOX [7] = assay: Antitumor activity against human LOX cells xenografted athymic nude mouse at 0.17 mg/kg, ip administered daily for 5 days; assay type: functional, organism-based; set-up: dose 0.17 mg/kg
# LOX [8] = assay: Antitumor activity against human LOX cells xenografted athymic nude mouse at 0.88 mg/kg, ip administered daily for 5 days; assay type: functional, organism-based; set-up: dose 0.88 mg/kg
# LOX [9] = assay: Antitumor activity against human LOX cells xenografted athymic nude mouse at 2.0 mg/kg, ip administered daily for 5 days; assay type: functional, organism-based; set-up: dose 2 mg/kg
# Mus musculus [10] = assay: Toxicity against human LOX cells xenografted athymic nude mouse assessed as median day of death at 1.33 mg/kg, ip administered daily for 5 days; assay type: organism-based; set-up: dose 1.33 mg/kg, route intraperitoneal; conditions: in vivo, 120 h
# [11] = Antitumor activity against human LOX cells xenografted athymic nude mouse assessed as increase in life span at 0.59 mg/kg, ip administered daily for 5 days; assay type: functional; conditions: route intraperitoneal
# LOX [12] = assay: Antitumor activity against human LOX cells xenografted athymic nude mouse at 0.59 mg/kg, ip administered daily for 5 days; assay type: functional, organism-based; set-up: dose 0.59 mg/kg
# Mus musculus [13] = assay: Toxicity against human LOX cells xenografted athymic nude mouse assessed as median day of death at 0.26 mg/kg, ip administered daily for 5 days; assay type: organism-based; set-up: dose 0.26 mg/kg, route intraperitoneal; conditions: in vivo, 120 h
# Mus musculus [14] = assay: Toxicity against human LOX cells xenografted athymic nude mouse assessed as median day of death at 0.17 mg/kg, ip administered daily for 5 days; assay type: organism-based; set-up: dose 0.17 mg/kg, route intraperitoneal; conditions: in vivo, 120 h
# Mus musculus [15] = assay: Toxicity against human LOX cells xenografted athymic nude mouse assessed as median day of death at 0.39 mg/kg, ip administered daily for 5 days; assay type: organism-based; set-up: dose 0.39 mg/kg, route intraperitoneal; conditions: in vivo, 120 h
# Mus musculus [16] = assay: Toxicity against human LOX cells xenografted athymic nude mouse assessed as median day of death at 2.0 mg/kg, ip administered daily for 5 days; assay type: organism-based; set-up: dose 2 mg/kg, route intraperitoneal; conditions: in vivo, 120 h
# Mus musculus [17] = assay: Toxicity against human LOX cells xenografted athymic nude mouse assessed as median day of death at 0.59 mg/kg, ip administered daily for 5 days; assay type: organism-based; set-up: dose 0.59 mg/kg, route intraperitoneal; conditions: in vivo, 120 h
# LOX [18] = assay: Antitumor activity against human LOX cells xenografted athymic nude mouse at 3.0 mg/kg, ip administered daily for 5 days; assay type: functional, organism-based; set-up: dose 3 mg/kg
# [19] = Antitumor activity against human LOX cells xenografted athymic nude mouse assessed as increase in life span at 1.33 mg/kg, ip administered daily for 5 days; assay type: functional; conditions: route intraperitoneal
# [20] = Antitumor activity against human LOX cells xenografted athymic nude mouse assessed as increase in life span at 0.26 mg/kg, ip administered daily for 5 days; assay type: functional; conditions: route intraperitoneal
# LOX [21] = assay: Antitumor activity against human LOX cells xenografted athymic nude mouse at 0.26 mg/kg, ip administered daily for 5 days; assay type: functional, organism-based; set-up: dose 0.26 mg/kg
# [22] = Antitumor activity against human LOX cells xenografted athymic nude mouse assessed as increase in life span at 0.88 mg/kg, ip administered daily for 5 days; assay type: functional; conditions: route intraperitoneal
# LOX [23] = assay: Antitumor activity against human LOX cells xenografted athymic nude mouse at 0.39 mg/kg, ip administered daily for 5 days; assay type: functional, organism-based; set-up: dose 0.39 mg/kg
# LOX [24] = assay: Antitumor activity against human LOX cells xenografted athymic nude mouse at 6.0 mg/kg, ip administered daily for 5 days; assay type: functional, organism-based; set-up: dose 6 mg/kg
# Mus musculus [25] = assay: Toxicity against human LOX cells xenografted athymic nude mouse assessed as median day of death at 6.0 mg/kg, ip administered daily for 5 days; assay type: organism-based; set-up: dose 6 mg/kg, route intraperitoneal; conditions: in vivo, 120 h
# LOX [26] = assay: Antitumor activity against human LOX cells xenografted athymic nude mouse at 28.12 mg/kg, ip administered daily for 5 days; assay type: functional, organism-based; set-up: dose 28.12 mg/kg
# Mus musculus [27] = assay: Toxicity against human LOX cells xenografted athymic nude mouse assessed as median day of death at 28.12 mg/kg, ip administered daily for 5 days; assay type: organism-based; set-up: dose 28.12 mg/kg, route intraperitoneal; conditions: in vivo, 120 h
# Mus musculus [28] = assay: Toxicity against human LOX cells xenografted athymic nude mouse assessed as median day of death at 225 mg/kg, ip administered daily for 5 days; assay type: organism-based; set-up: dose 225 mg/kg, route intraperitoneal; conditions: in vivo, 120 h
# LOX [29] = assay: Antitumor activity against human LOX cells xenografted athymic nude mouse at 112.5 mg/kg, ip administered daily for 5 days; assay type: functional, organism-based; set-up: dose 112.5 mg/kg
# Mus musculus [30] = assay: Toxicity against human LOX cells xenografted athymic nude mouse assessed as median day of death at 112.5 mg/kg, ip administered daily for 5 days; assay type: organism-based; set-up: dose 112.5 mg/kg, route intraperitoneal; conditions: in vivo, 120 h
# Mus musculus [31] = assay: Toxicity against human LOX cells xenografted athymic nude mouse assessed as median day of death at 56.25 mg/kg, ip administered daily for 5 days; assay type: organism-based; set-up: dose 56.25 mg/kg, route intraperitoneal; conditions: in vivo, 120 h
# Mus musculus [32] = assay: Toxicity against human LOX cells xenografted athymic nude mouse assessed as median day of death at 3.51 mg/kg, ip administered daily for 5 days; assay type: organism-based; set-up: dose 3.51 mg/kg, route intraperitoneal; conditions: in vivo, 120 h
# LOX [33] = assay: Antitumor activity against human LOX cells xenografted athymic nude mouse at 56.25 mg/kg, ip administered daily for 5 days; assay type: functional, organism-based; set-up: dose 56.25 mg/kg
# [34] = Antitumor activity against human LOX cells xenografted athymic nude mouse assessed as increase in life span at 1.76 mg/kg, ip administered daily for 5 days; assay type: functional; conditions: route intraperitoneal
# [35] = Antitumor activity against human LOX cells xenografted athymic nude mouse assessed as increase in life span at 0.17 mg/kg, ip administered daily for 5 days; assay type: functional; conditions: route intraperitoneal
# Mus musculus [36] = assay: Toxicity against human LOX cells xenografted athymic nude mouse assessed as median day of death at 7.03 mg/kg, ip administered daily for 5 days; assay type: organism-based; set-up: dose 7.03 mg/kg, route intraperitoneal; conditions: in vivo, 120 h
# LOX [37] = assay: Antitumor activity against human LOX cells xenografted athymic nude mouse at 225 mg/kg, ip administered daily for 5 days; assay type: functional, organism-based; set-up: dose 225 mg/kg
# LOX [38] = assay: Antitumor activity against human LOX cells xenografted athymic nude mouse at 3.51 mg/kg, ip administered daily for 5 days; assay type: functional, organism-based; set-up: dose 3.51 mg/kg
# Mus musculus [39] = assay: Toxicity against human LOX cells xenografted athymic nude mouse assessed as median day of death at 14.06 mg/kg, ip administered daily for 5 days; assay type: organism-based; set-up: dose 14.06 mg/kg, route intraperitoneal; conditions: in vivo, 120 h
# LOX [40] = assay: Antitumor activity against human LOX cells xenografted athymic nude mouse at 14.06 mg/kg, ip administered daily for 5 days; assay type: functional, organism-based; set-up: dose 14.06 mg/kg
# LOX [41] = assay: Antitumor activity against human LOX cells xenografted athymic nude mouse at 1.76 mg/kg, ip administered daily for 5 days; assay type: functional, organism-based; set-up: dose 1.76 mg/kg
# Mus musculus [42] = assay: Toxicity against human LOX cells xenografted athymic nude mouse assessed as median day of death at 1.76 mg/kg, ip administered daily for 5 days; assay type: organism-based; set-up: dose 1.76 mg/kg, route intraperitoneal; conditions: in vivo, 120 h
# LOX [43] = assay: Antitumor activity against human LOX cells xenografted athymic nude mouse at 7.03 mg/kg, ip administered daily for 5 days; assay type: functional, organism-based; set-up: dose 7.03 mg/kg
smiles,measurement,setting,value
C=C[C@H](O)C#CC#C/C=C/C(O)CCCCCCC (stereo not given in full),GI50,[1],0.44 µM
same,LC50,[1],4.7 µM
same,TGI,[1],1.4 µM
C=CCCCCC/C=C\CC#CC#C[C@@H](O)C=C,Activity,Mus musculus [2],15 days
same,Activity,[3],47%
same,Activity,[4],27%
same,Activity,LOX [5],inactive
same,Activity,Mus musculus [6],18 days
same,Activity,LOX [7],inactive
same,Activity,LOX [8],inactive
same,Activity,LOX [9],inactive
same,Activity,Mus musculus [10],15 days
same,Activity,[11],20%
same,Activity,LOX [12],inactive
same,Activity,Mus musculus [13],18 days
same,Activity,Mus musculus [14],15 days
same,Activity,Mus musculus [15],15 days
same,Activity,Mus musculus [16],16 days
same,Activity,Mus musculus [17],15 days
same,Activity,LOX [18],inactive
same,Activity,[19],20%
same,GI50,[1],0.4 µM
same,LC50,[1],4.8 µM
same,TGI,[1],1.3 µM
same,Activity,[20],20%
same,Activity,LOX [21],inactive
same,Activity,[22],13%
same,Activity,LOX [23],inactive
C=CCCCCC/C=C\[C@H](O)C#CC#C[C@@H](O)C=C,Activity,Mus musculus [2],14 days
same,Activity,LOX [24],inactive
same,Activity,LOX [5],inactive
same,Activity,Mus musculus [6],14.5 days
same,Activity,LOX [8],inactive
same,Activity,Mus musculus [25],15 days
same,Activity,LOX [9],inactive
same,Activity,Mus musculus [10],15.5 days
same,Activity,LOX [12],inactive
same,Activity,Mus musculus [13],15 days
same,Activity,Mus musculus [15],14.5 days
same,Activity,Mus musculus [16],14 days
same,Activity,Mus musculus [17],15 days
same,Activity,LOX [18],inactive
same,Activity,[19],3%
same,GI50,[1],2.1 µM
same,LC50,[1],10 µM
same,TGI,[1],3 µM
same,Activity,LOX [21],inactive
same,Activity,LOX [23],inactive
C=CCCCCC/C=C\[C@H](O)C#CC#C[C@@H](O)CC [DENDROARBOREOL A],GI50,[1],4.6 µM
same,LC50,[1],25 µM
same,TGI,[1],14 µM
C=CCCCCCC(O)/C=C/C#CC#C[C@@H](O)C=C (stereo not given in full) [DENDROARBOREOL B],GI50,[1],0.5 µM
same,LC50,[1],7.6 µM
same,TGI,[1],1.9 µM
C=C[C@@H](O)C#CC#C[C@@H](O)/C=C\CCCCCCC [FALCARINDIOL],GI50,[1],0.66 µM
same,TGI,[1],2.2 µM
C=C[C@H](O)C#CC#CC/C=C\CCCCCCC [FALCARINOL],Activity,Mus musculus [2],22 days
same,Activity,LOX [26],Active
same,Activity,[3],13%
same,Activity,Mus musculus [27],4 days
same,Activity,Mus musculus [28],2 days
same,Activity,LOX [29],Active
same,Activity,[4],7%
same,Activity,Mus musculus [30],3 days
same,Activity,Mus musculus [31],3 days
same,Activity,Mus musculus [32],6.5 days
same,Activity,LOX [5],inactive
same,Activity,Mus musculus [6],20 days
same,Activity,LOX [7],inactive
same,Activity,LOX [33],Active
same,Activity,LOX [8],inactive
same,Activity,[34],5%
same,Activity,LOX [9],inactive
same,Activity,Mus musculus [10],20 days
same,Activity,[11],13%
same,Activity,[35],5%
same,Activity,LOX [12],inactive
same,Activity,Mus musculus [36],5.5 days
same,Activity,LOX [37],Active
same,Activity,LOX [38],Active
same,Activity,Mus musculus [14],21 days
same,Activity,Mus musculus [15],19 days
same,Activity,Mus musculus [16],19.5 days
same,Activity,Mus musculus [17],22.5 days
same,Activity,Mus musculus [39],4.5 days
same,Activity,LOX [18],inactive
same,GI50,[1],0.22 µM
same,LC50,[1],3.8 µM
same,TGI,[1],0.76 µM
same,Activity,LOX [40],Active
same,Activity,LOX [41],inactive
same,Activity,Mus musculus [42],22 days
same,Activity,LOX [43],Active
same,Activity,[22],5%
same,Activity,LOX [23],inactive
